The test system of one experiment is GH release. As to the kind of experiment: Released GH in ten day-rats, s.c. (Table 9). Format: in vivo. Particulars: 15 minutes. The protocol: In vivo activity of these compounds was determined in ten day-rats, which were subcutaneously injected (s.c.) with a dose of 300 μg/kg or with different doses in dose-response studies, according to the procedure as described in Deghenghi et. al, Life Sciences 54, 1321 (1994). The released GH was measured 15 minutes following compound administration.

In another experiment the test system is adenylcyclase. Put plainly: Adenylcyclase activity in anterior pituitary gland cells. Format: cell-based. The conditions noted are these: anterior pituitary gland cells from rats weighing 150 g.
Where [1] appears, read: 300 μg/kg s.c., GH control 10 to 31 ng/ml depending on experiment.

Results on 3 substances are retold here after patent US5955421A, “Peptides containing D-2-alkyl-Tryptophan” (priority 1990, dated 1999).

For the substance “4-(aminomethyl)cyclohexanecarbonyl-D-Mrp-D-Trp-Phe-Lys-NH^2”, the GH released with GH release (setting [1]) turned out to be 111.8 ± 24.6 ng/mL.
The same measure, in the same setting: the figure for “imidazolylacetyl-D-Mrp-Ala-Trp-D-Phe-Lys-NH2” is 159 ± 27 ng/mL.
As for “D-Ala-D-Mrp-Ala-Trp-D-Phe-Lys-NH2 [D-Ala-D-Mrp--Ala--Trp-D-Phe--Lys--NH2]”, in the experiment on adenylcyclase, the EC50 stood at 0.23 nM and the “adenylcyclase activity, increase compared with the baseline” value was found to be 30%. The GH released with GH release (40 μg/kg s.c., GH control 34 ± 1) stood at 200 ± 20 ng/mL. Also, in the experiment with GH release (320 μg/kg s.c., GH control 34 ± 1), the GH released was found to be 251 ± 32 ng/mL.

For orientation: EC50 means the concentration that produces a half-maximal response. Lower therefore signals higher potency in that assay.
